Results taken from US20020082273A1, “Agents for use in the treatment of alzheimer's disease” (priority 1998, published 2002).

Assays:
Aβ1-42 [1] = target: T1, Aβ1-42 (Homo sapiens, UniProt P05067); experiment: Effect of metal chelators on H2O2 production from Aβ1-42; assay type: biochemical; conditions: 1 μM Fe^3+; chelator 200 μM
Alzheimer's disease = conditions: clinical administration; cited from earlier work
Aβ1-42 [2] = target: T1, Aβ1-42; experiment: Effect of chelators on metal reduction by Aβ1-42; assay type: biochemical; conditions: chelator 200 μM, Fe^3+ 10 μM, ambient oxygenation
[3] = in vivo; cited from earlier work
[4] = Cu^2+-induced SDS-resistant polymerization of Aβ peptides, western blot image analysis; assay type: biochemical, human
Protocol: Following incubation (37° C.), aliquots of each reaction (2 ng peptide) were collected at 0 d, 1 d, 3 d and 5 d and western blotted using anti-Aβ monoclonal antibody 8E10 (FIG. 9). Migration of the molecular size markers are indicated (kDa). […] It should be noted that other means of visualizing and/or determining the presence or absence of polymerization other than western blot analysis may be used. Such other means include but are not limited to density sedimentation by centrifugation of the samples.
The generation of SDS-resistant Aβ polymers by metal ions was tested by incubating Cu^2+ (30 μM) or Zn^2+ (30 μM) at pH 6.6, 7.4 and 9.0 with Aβ1-40.
(0-30 μM) at pH 7.4 and 6.6 and the samples analyzed by Western blot and the signal quantitated using the Fluoro-S Image Analysis System (Bio-Rad, Hercules, Calif.) as previously described.

[5] = Metal reduction assay, Fe^3+ to Fe^2+; assay type: biochemical; conditions: 10 μM Fe^3+, PBS pH 7.4, 1 hr 37° C.
Protocol: (§1) The metal reduction assay was performed using a 96-well microtiter plate (Costar) based upon a modification of established protocols (Landers, J. W., et al., Amer. Clin. Path. 29:590 (1958); Landers, J. W., et al., Clinica Chimica Acta 3:329 (1958)). Polypeptides (10 μM) or Vitamin C (100 μM), metal ions (10 μM, Fe(NO3)3 or Cu(NO3)2), and reduced metal ion indicators, bathophenanthrolinedisulfonic acid (BP, for Fe^2+, Sigma, 200 μM) or bathocuproinedisulfonic acid (BC, for Cu^+, Sigma, 200 μM), were coincubated in phosphate buffered saline (PBS), pH 7.4, for 1 hr at 37° C. The metal ion solutions were prepared by direct dilution in the buffer from their aqueous stocks purchased from National Institute of Standards and Technology (NIST). Absorbances were then measured at 536 mn (Fe^2+-BP complex) and 483 nm (Cu^+-BC complex), respectively, using a 96-well plate reader (SPECTRAmax 250, Molecular Devices, CA). In control samples, both metal ion and indicator were present to determine the background buffer signal. As a further control, both metal ion and peptide were present in the absence of indicator to estimate the contribution of light scattering due to turbidity to the absorbance reading at these wavelengths. The net absorbances (ΔA) at 536 nm or 483 nm were obtained by deducting the absorbances from these controls from the absorbances generated by the peptide and metal in the presence of the respective indicator.
The concentrations of reduced metal ions (Fe^2+ or Cu^+) were quantified based on the formula: Fe^2+ or Cu^+ (˜M)=A*10^6/(L*M), where L is the measured equivalent vertical pathlength for a well of 300 μL volume as described in the instrument's specifications manual (0.856 cm for Fe^2+; 1.049 cm for Cu^+); M is the known molecular absorbance (M^−1 cm^−1) which is 7124 (for Fe^2+-BP complex) or 2762 (for Cu^+-BC complex).

[6] = H2O2 assay, production by Aβ peptides; assay type: biochemical; conditions: 1 μM Fe^3+, ambient O2, PBS pH 7.4, 1 hour 37° C.
Protocol: Polypeptides (10 μM) or Vitamin C (10 μM), Fe^3+ or Cu^2+ (1 μM) and a H2O2 trapping agent-Tris(2-Carboxyethyl)Phosphine Hydrochloride (TCEP, Pierce, 50 μM)-were co-incubated in PBS buffer (300 μL), pH 7.4, for 1 hour at 37° C. Under identical conditions, catalase (Sigma, 100 U/mL) was substituted for the polypeptides, to serve as a control signal representing 0 μM H2O2. Following incubation, the unreacted TCEP was detected by 5,5-Dithio-bis(2-Nitrobenzoic acid) (DTNB, Sigma, 50 KLM) which generates 2 moles of the coloured product.

TBARS assay of OH. = assay type: biochemical; conditions: 10 μM peptide, 1 μM Fe^3+ or Cu^2+
Protocol: All data points are means ±SD, n=3.
The Thiobarbituric Acid-Reactive Substance (TBARS) assay for incubation mixtures with Fe^3+ or Cu^2+ was performed in a 96-well microtiter format modified from established protocols (Gutteridge et al. Biochim. Biophys. Acta 759: 38-41 (1983)). Aβ peptide species (10 μM) or Vitamin C (100 μM), were incubated with Fe^3+ or Cu^2+ (1 μM) and deoxyribose (7.5 mM, Sigma) in PBS, pH 7.4. Following incubation (37° C., 1 hour), glacial (17 M) acetic acid and 2-thiobarburic acid (1%, w/v in 0.05 M NaOH, Sigma) were added and heated (100° C., 10 min). The final mixtures were placed on ice for 1-3 minutes before absorbances at 532 nm were measured. The net absorbance change for each sample were obtained by deducting the absorbance from a control sample consisting of identical chemical components except for the Vitamin C or Aβ peptides.

[7] = Metal reduction assay, Cu^2+ to Cu^+; assay type: biochemical; conditions: 10 μM Cu^2+, PBS pH 7.4, 1 hr 37° C.
Protocol: Aβ (10 μM in PBS, pH 7.4 or 6.8, as shown) was incubated for 30 minutes (37° C.) in the presence of Cu^2+10 μM ±Zn^2+ 10 μM). […] levels (n=3, ±SD) were assayed against a standard curve.
as §1, with “Polypeptides” for “The metal reduction assay was performed using a 96-well microtiter plate (Costar) based upon a modification of established protocols (Landers, J. W., et al., Amer. Clin. Path. 29:590 (1958); Landers, J. W., et al., Clinica Chimica Acta 3:329 (1958)). Polypeptides”, “Absorbances were then measured at 536 mn (Fe^2+-BP complex) and 483 nm (Cu^+-BC complex), respectively, using a 96-well plate reader (SPECTRAmax 250, Molecular Devices, CA).” left out

T1 sequence (P05067 672-713 limits assumed): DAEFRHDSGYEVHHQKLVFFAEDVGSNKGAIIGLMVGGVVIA

Q: Which results are given for CC(=O)N(O)CCCCCNC(=O)CCC(=O)N(O)CCCCCNC(=O)CCC(=O)N(O)CCCCCN [DFO]?
A: effect on H2O2 formation by Aβ1-42 (Aβ1-42 [1]): had no effect on H2O2 formation; effect on progression of AD (Alzheimer's disease): effective in preventing the progression of AD; effect on production of Fe^2+ by Aβ1-42 (Aβ1-42 [2]): nearly halved; brain / blood-brain barrier penetration [3]: does not easily penetrate the blood-brain barrier

Q: What does the source list for “Aβ1-42: synthetic human Aβ peptide, residues 1-42”?
A: SDS-resistant polymers: Monomer ([4]; pH 6.6, [Cu^2+] 0): 61.0; SDS-resistant polymers: Pentamer ([4]; pH 6.6, [Cu^2+] 0): 3.8; SDS-resistant polymers: Tetramer ([4]; pH 6.6, [Cu^2+] 0): 8.6; SDS-resistant polymers: Trimer ([4]; pH 6.6, [Cu^2+] 0): 27.3; SDS-resistant polymers: Monomer ([4]; pH 6.6, [Cu^2+] 0.5): 52.1; SDS-resistant polymers: Tetramer ([4]; pH 6.6, [Cu^2+] 0.5): 12.0; SDS-resistant polymers: Trimer ([4]; pH 6.6, [Cu^2+] 0.5): 33.8; SDS-resistant polymers: Monomer ([4]; pH 6.6, [Cu^2+] 5): 59.6; SDS-resistant polymers: Tetramer ([4]; pH 6.6, [Cu^2+] 5): 7.1; SDS-resistant polymers: Monomer ([4]; pH 6.6, [Cu^2+] 10): 52.3; SDS-resistant polymers: Pentamer ([4]; pH 6.6, [Cu^2+] 10): 2.2; SDS-resistant polymers: Tetramer ([4]; pH 6.6, [Cu^2+] 10): 13.6; SDS-resistant polymers: Monomer ([4]; pH 7.4, [Cu^2+] 0): 76.61; SDS-resistant polymers: Pentamer ([4]; pH 7.4, [Cu^2+] 0): 1.9; SDS-resistant polymers: Tetramer ([4]; pH 7.4, [Cu^2+] 0): 5.5; SDS-resistant polymers: Trimer ([4]; pH 7.4, [Cu^2+] 0): 16.0; SDS-resistant polymers: Monomer ([4]; pH 7.4, [Cu^2+] 0.5): 70.7; SDS-resistant polymers: Pentamer ([4]; pH 7.4, [Cu^2+] 0.5): 2.5; SDS-resistant polymers: Tetramer ([4]; pH 7.4, [Cu^2+] 0.5): 6.2; SDS-resistant polymers: Trimer ([4]; pH 7.4, [Cu^2+] 0.5): 20.5; SDS-resistant polymers: Monomer ([4]; pH 7.4, [Cu^2+] 1): 64.9; SDS-resistant polymers: Pentamer ([4]; pH 7.4, [Cu^2+] 1): 4.0; SDS-resistant polymers: Tetramer ([4]; pH 7.4, [Cu^2+] 1): 7.4; SDS-resistant polymers: Trimer ([4]; pH 7.4, [Cu^2+] 1): 23.6; SDS-resistant polymers: Monomer ([4]; pH 7.4, [Cu^2+] 5): 56.1; SDS-resistant polymers: Pentamer ([4]; pH 7.4, [Cu^2+] 5): 4.1; SDS-resistant polymers: Tetramer ([4]; pH 7.4, [Cu^2+] 5): 8.7; SDS-resistant polymers: Monomer ([4]; pH 7.4, [Cu^2+] 10): 55.1; SDS-resistant polymers: Pentamer ([4]; pH 7.4, [Cu^2+] 10): 4.3; SDS-resistant polymers: Tetramer ([4]; pH 7.4, [Cu^2+] 10): 10.3; SDS-resistant polymers: Monomer ([4]; pH 7.4, [Cu^2+] 30): 57.1; SDS-resistant polymers: Pentamer ([4]; pH 7.4, [Cu^2+] 30): 4.2; SDS-resistant polymers: Tetramer ([4]; pH 7.4, [Cu^2+] 30): 8.3; reduction of available Fe^3+ [5]: 50%; H2O2 generated [6]: 10 µM

Q: With “rat Aβ1-40: rat Aβ with substitutions R5→G, Y10→F, H13→R compared to human Aβ (DAEFGHDSGFEVRHQKLVFFAEDVGSNKGAIIGLMVGGVV; Amyloid-beta protein 40; UniProt P08592 672-711, looked up)” as the compound, how does the “OH. generation (TBARS)” value (TBARS assay of OH.) read?
A: Its value is “did not generate OH”.

Q: And the “reduction of available Fe^3+” value [5]?
A: Its value is “did not significantly facilitate the reduction of Fe^3+”.

Q: What about the “reduction of available Cu^2+” value [7] of the same compound?
A: Its value is “reduced no Cu^2+”.

Q: Which “effect on progression of AD” value (Alzheimer's disease) does the source give for vitamin E here?
A: Its value is “delay the progression of clinical AD”.
